Measurements published in ChEMBL document CHEMBL1128856, “Paclitaxel and docetaxel photoaffinity labels” (1995).

Legend:
Format in all cases: functional
[1] = Ability to induce the formation of microtubules using microtubule assembly assay in vitro relative to paclitaxel ED50 = 1
[2] = In vitro cytotoxicity against B16 melanoma cells relative to paclitaxel ED50 = 1
[3] = In vitro cytotoxicity against P388 cells relative to paclitaxel ED50 = 1

| SMILES | Ratio [1] | Ratio [2] | Ratio [3] |
| --- | --- | --- | --- |
| CC(=O)O[C@H]1C(=O)[C@@]2(C)[C@H]([C@H](OC(=O)c3ccccc3)[C@]3(O)C[C@H](OC(=O)[C@H](O)[C@@H](NC(=O)c4ccc(N=[N+]=[N-])cc4)c4ccccc4)C(C)=C1C3(C)C)[C@]1(OC(C)=O)CO[C@@H]1C[C@@H]2O | 2 | 4.6 | – |
| CC(=O)O[C@H]1C(=O)[C@@]2(C)[C@H]([C@H](OC(=O)c3ccccc3)[C@]3(O)C[C@H](OC(=O)[C@H](O)[C@@H](NC(=O)c4cc(N=[N+]=[N-])cc([N+](=O)[O-])c4)c4ccccc4)C(C)=C1C3(C)C)[C@]1(OC(C)=O)CO[C@@H]1C[C@@H]2O | 3 | 17.4 | – |
| CC(=O)O[C@@]12CO[C@@H]1C[C@H](O)[C@@]1(C)C(=O)[C@H](O)C3=C(C)[C@@H](OC(=O)[C@H](O)[C@@H](NC(=O)OC(C)(C)C)c4ccccc4)C[C@@](O)([C@@H](OC(=O)c4ccccc4)[C@H]21)C3(C)C.O.O.O [DOCETAXEL] | 0.45 | 0.41 | – |
| CC(=O)O[C@H]1C(=O)[C@@]2(C)[C@H]([C@H](OC(=O)c3cccc(N=[N+]=[N-])c3)[C@]3(O)C[C@H](OC(=O)[C@H](O)[C@@H](NC(=O)c4ccccc4)c4ccccc4)C(C)=C1C3(C)C)[C@]1(OC(C)=O)CO[C@@H]1C[C@@H]2O | 0.4 | 0.65 | 0.08 |
| CC(=O)O[C@H]1C(=O)[C@@]2(C)[C@H]([C@H](OC(=O)c3ccccc3)[C@]3(O)C[C@H](OC(=O)[C@H](O)[C@@H](NC(=O)c4ccccc4)c4ccccc4)C(C)=C1C3(C)C)[C@]1(OC(C)=O)CO[C@@H]1C[C@@H]2O [PACLITAXEL] | 1 | 1 | – |
| CC(=O)O[C@H]1C(=O)[C@@]2(C)[C@H]([C@H](OC(=O)c3cccc(N=[N+]=[N-])c3)[C@]3(O)C[C@H](OC(=O)[C@H](O)[C@@H](NC(=O)OC(C)(C)C)c4ccccc4)C(C)=C1C3(C)C)[C@]1(OC(C)=O)CO[C@@H]1C[C@@H]2O | 1.2 | 0.37 | – |
| CC(=O)O[C@H]1C(=O)[C@@]2(C)[C@H]([C@H](OC(=O)c3ccccc3)[C@]3(O)C[C@H](OC(=O)[C@H](O)[C@@H](NC(=O)c4cccc(N=[N+]=[N-])c4)c4ccccc4)C(C)=C1C3(C)C)[C@]1(OC(C)=O)CO[C@@H]1C[C@@H]2O | 0.81 | 2.6 | – |
